# From US10343991B2, “C5, C6 substituted and/or fused oxindoles as anti-cancer agents and process for preparation thereof” (Council of Scientific & Industrial Research, priority 2016, dated 2019)
# Tests used:
# THP1 cells [1] = test: Trypan blue assay, cell viability; assay type: cell-based; details: Homo sapiens, THP-1, 48 h, average of three experiments
# Description: (§1) In order to determine the anticancer potency, the synthesized oxindole derivatives were evaluated for anti-cancer activity various different human cancer cell lines, Leukemic Cancer (THP1), human breast cancer (MDA-MB-231 and MCF-7), human cervix carcinoma cells (HeLa), prostate cancer (DU-145) cellS by using standard Trypan blue and SRB assays. The preliminary anticancer activity for all the synthesized compounds was done at 10 μM concentration and cell inhibition was determined. […] The experiment was repeated thrice and the average values were taken.
# The assay was carried out in a 24 well flat-bottomed microtiter tissue culture plate. THP1 cells were seeded in the plates with a density of 4×10^4 cells/well (counted by tryphan blue exclusion dye method). Compounds were added to obtain a concentration of 10 μM. Sunitinib was used as positive control. Plates were incubated for 48 h at 37° C. in a humidified incubator with 5% CO2. At the end of the treatments, cells (THP1) were resuspended in 0.4% trypan blue and percent cell viability was counted using countess cell chamber (Life Technologies).
# DU-145 cells = test: SRB assay, cell viability; assay type: cell-based; details: Homo sapiens, 48 h, average of three experiments, read-out: DU145 Cell Viability at 10 μM
# Description: as §1
# (§2) The assay was carried out in a 24 well flat-bottomed microtiter tissue culture plate. Cells were seeded in the plates with a density of 4×10^4 cells/well (counted by tryphan blue exclusion dye method). After 24 hours media was replaced with fresh media and then compounds were added to obtain a concentrations of 10 μM. Sunitinib was used as positive control. Plates were incubated for 48 h at 37° C. in a humidified incubator with 5% CO2. After 48 hours without removing the cell culture supernatant, 500 μl of cold 10% (wt/vol) TCA was added to each well, and the plates were incubated at 4° C. for 1 h. The plates were washed for four times with water then rinsed with water several times to remove TCA, serum, proteins and excess water was removed using paper towels and air dried. 100 μl of 0.4% (wt/vol in 1% acetic acid) SRB solution was added to each well. Plates were left at room temperature for 30 min and then the plates were quickly rinsed for four times with 1% (vol/vol) acetic acid to remove unbound dye were and then air dried until no moisture was visible. 100 μl of 10 mM Tris base solution (pH 10.5) was added to each well and shake for 5 min to solubilize the protein-bound dye. Optical density was measured at 564 nm in a micro plate reader.
# HeLa cells = test: SRB assay, cell viability; assay type: cell-based; details: Homo sapiens, 48 h, average of three experiments
# Description: as §1, §2
# MCF-7 cells = test: SRB assay, cell viability; assay type: cell-based; details: Homo sapiens, MCF7, 48 h, average of three experiments
# Description: as §1, §2
# MDA-MB-231 cells = test: SRB assay, cell viability; assay type: cell-based; details: Homo sapiens, 48 h, average of three experiments
# Description: as §1, §2
# THP1 cells [2] = assay type: cell-based, human; details: THP-1 cells, 10 μM, 24 h; untreated cells 68.3%
# Description: To understand the anticancer activity mechanism of the synthesized oxindole derivatives, we analysed the cell cycle alteration phase distribution of the cells by treating THP1 cells with oxindole derivatives at 10 μM, for 24 h and analyzed by flow cytometry. Treatment of THP-1 cells with compounds 2b, 3d, 3e, 3g, 3h, 3i, 3j and 3k caused an accumulation of 98.5%, 94.3%, 96.7%, 97%, 98%, 83%, 93.5%, 98.1% cells in the G0/G1 phase respectively as compared to 68.3% in untreated cells and 99.5% in Sunitinib treated cells. […] (Fig. x and Table .y).
# The THP1 cells were treated with the active compounds at […] and incubated for about 24 h. The cells were fixed in ice cold ethanol solvent at 4° C. for about 30 minutes. The ethanol was removed and cells were treated with 1 mL of DNA staining solution (2 mg of RNase and 0.2 mg of propidium iodide (PI)) for 30 minutes. The DNA content was measured by flow cytometry (BD FACS C anto II). Results were analysed using FCS express 4 plus software.
# [3] = tested on: VEGF tyrosin kinase (VEGFR); test: VEGFR activity, phosphotyrosine (PY) cell-based ELISA; details: 10 μM, 60 min pretreatment, VEGF stimulation
# Description: Briefly, cells at 60-75% confluence were placed in serum-free medium for 18 h to reduce the background of phosphorylation. Cells were then pretreated for 60 min with 2b, 3d, 3e, 3g, 3h, 3i, 3j and 3k compounds at 10 μM concentration followed by an optimized dose of purified growth factor (VEGF). The reaction was stopped, and cells were permeabilized by quickly removing the media from the cells and adding ice-cold Tris-buffered saline (TBS) containing 0.05% triton X-100, protease inhibitor cocktail, and tyrosine phosphatase inhibitor cocktail (both from Sigma Chemical). The TBS solution was then removed, and cells were fixed to the plate by heat and further incubation in 70% ethanol. Cells were further exposed to block (TBS with 1% BSA) and washed, and then a horseradish peroxidase (HRP)-conjugated phosphotyrosine antibody was added. The antibody was removed; cells were washed again and exposed to an enhanced luminol ELISA substrate, and light emission was measured using a plate reader. The known RTK-specific kinase inhibitor (Sunitinib) was used as positive control for kinase inhibition.
melting point [°C],SMILES,viability at 10 µM (THP1 cells [1]) [%],viability at 10 µM (DU-145 cells) [%],viability at 10 µM (HeLa cells) [%],viability at 10 µM (MCF-7 cells) [%],viability at 10 µM (MDA-MB-231 cells) [%],accumulation of cells in the G0/G1 phase (THP1 cells [2]) [%],inhibitory activity of VEGF tyrosin kinase activity [3]
165 to 168,"Cc1ccsc1/C=C1\C(=O)Nc2cc3oc(Cc4ccccc4)c(-c4ccccc4)c3cc21 [Compound 3i, (Z)-2-benzyl-5-((3-methylthiophen-2-yl)methylene)-3-phenyl-5H-furo[3,2-f]indol-6(7H)-one]",41.2,52,42.6,31.4,43.2,83,inhibitory activity
181 to 183,COc1cccc(C(C#CCOCc2ccccc2)c2cc3c(cc2O)NC(=O)/C3=C\c2[nH]c(C)cc2C)c1OC (stereo not shown) [Compound 3f],30.2,62.1,39.4,33.1,37.7,–,–
182 to 185,"Cc1ccsc1/C=C1\C(=O)Nc2cc(O)c(C(C#Cc3ccccc3)c3ccccc3)cc21 (stereo not shown) [Compound 3d, (Z)-5-(1,3-diphenylprop-2-yn-1-yl)-6-hydroxy-3-((3-methylthiophen-2-yl)methylene)indolin-2-one]",33.3,45.5,71.3,30.7,35.9,94.3,inhibitory activity
185 to 186,"Cc1ccc(S(=O)(=O)n2cc(C(C#Cc3ccccc3)c3cc4c(cc3O)NC(=O)/C4=C\c3[nH]c(C)cc3C)c3ccccc32)cc1 (stereo not shown) [Compound 3g, (Z)-3-((3,5-dimethyl-1H-pyrrol-2-yl)methylene)-6-hydroxy-5-(3-phenyl-1-(1-tosyl-1H-indol-3-yl)prop-2-yn-1-yl)indolin-2-one]",104,94.3,88.3,91.5,63.8,97,inhibitory activity
174 to 176,"Cc1ccc(S(=O)(=O)n2cc(-c3c(Cc4ccccc4)oc4cc5c(cc34)/C(=C/c3[nH]c(C)cc3C)C(=O)N5)c3ccccc32)cc1 [Compound 3m, (Z)-2-benzyl-5-((3,5-dimethyl-1H-pyrrol-2-yl)methylene)-3-(1-tosyl-1H-indol-3-yl)-5H-furo[3,2-f]indol-6(7H)-one]",68.2,91.7,87.6,71.4,75.5,–,–
186 to 188,"Cc1cc(C)c(/C=C2\C(=O)Nc3cc4oc(Cc5ccccc5)c(-c5ccccc5)c4cc32)[nH]1 [Compound 3h, (Z)-2-benzyl-5-((3,5-dimethyl-1H-pyrrol-2-yl)methylene)-3-phenyl-5H-furo[3,2-f]indol-6(7H)-one]",36.2,58.6,40.3,40.5,41.3,98,inhibitory activity

# Further lines, the compound ahead of its results:
SMILES,melting point [°C],viability at 10 µM (THP1 cells [1]) [%],viability at 10 µM (DU-145 cells) [%],viability at 10 µM (HeLa cells) [%],viability at 10 µM (MCF-7 cells) [%],viability at 10 µM (MDA-MB-231 cells) [%],accumulation of cells in the G0/G1 phase (THP1 cells [2]) [%],inhibitory activity of VEGF tyrosin kinase activity [3]
"CCN(CC)CCNC(=O)c1c(C)[nH]c(/C=C2\C(=O)Nc3ccc(F)cc32)c1C [SUNT, Sunitinib, reference compound]",–,35.2,35,37.1,34.3,39.5,99.5,–
"COc1cccc(-c2c(CCOCc3ccccc3)oc3cc4c(cc23)CC(=O)N4)c1OC [Compound 3b, 2-(2-(Benzyloxy)ethyl)-3-(2,3-dimethoxyphenyl)-5H-furo [3,2-f] indol-6(7H)-one]",120 to 122,75.5,69.2,40.5,49.3,72.5,–,–
"O=C1Cc2cc3c(-c4ccccc4)c(Cc4ccccc4)oc3cc2N1 [Compound 3a, 2-Benzyl-3-phenyl-5H-furo[3,2-f]indol-6(7H)-one]",196 to 198,53.6,21.7,27.6,51.1,53.8,–,–
"COc1cccc(C(C#CCOCc2ccccc2)c2cc3c(cc2O)NC(=O)C3)c1OC (stereo not shown) [Compound 2b, 5-(4-(Benzyloxy)-1-(2,3-dimethoxyphenyl)but-2-ynyl)-6-hydroxyindolin-2-one]",177 to 179,48.5,51.2,40.4,39.8,42.8,98.5,inhibitory activity
"Cc1cc(C)c(/C=C2\C(=O)Nc3cc(O)c(C(C#Cc4ccccc4)c4ccccc4)cc32)[nH]1 (stereo not shown) [Compound 3c, (Z)-3-((3,5-dimethyl-1H-pyrrol-2-yl)methylene)-5-(1,3-diphenylprop-2-yn-1-yl)-6-hydroxyindolin-2-one]",173 to 179,125,81.3,78.2,49.9,74.5,–,–
"COc1cccc(-c2c(COCc3ccccc3)oc3cc4c(cc23)/C(=C/c2[nH]c(C)cc2C)C(=O)N4)c1OC [Compound 3k, (Z)-2-((benzyloxy)methyl)-3-(2,3-dimethoxyphenyl)-5-((3,5-dimethyl-1H-pyrrol-2-yl)methylene)-5H-furo[3,2-f]indol-6(7H)-one]",–,80.5,62.7,38.9,43.1,109,98.1,inhibitory activity
"O=C1Cc2cc(C(C#Cc3ccccc3)c3ccccc3)c(O)cc2N1 (stereo not shown) [Compound 2a, 5-(1,3-Diphenylprop-2-yn-1-yl)-6-hydroxyindolin-2-one]",195 to 196,34.5,41.7,36.6,39.7,71.3,–,–
"COc1cccc(-c2c(COCc3ccccc3)oc3cc4c(cc23)/C(=C/c2sccc2C)C(=O)N4)c1OC [Compound 3l, (Z)-2-((benzyloxy)methyl)-3-(2,3-dimethoxyphenyl)-5-((3-methylthiophen-2-yl)methylene)-5H-furo[3,2-f]indol-6(7H)-one]",–,106,49.7,52,79,111,–,–
